Measured values published in publication PMC12729524, “Enhancement of Structural Stability and IgG Affinity of a Z34C-Derived α-Helical Peptide via Lactam Stapling” (Antibodies, 2025).
Where a SMILES comes first, the peptide text is derived from it.

Columns and labels:
FITC-labeled human IgG = test: IgG capture test on peptide-functionalized glass slides, fluorescence imaging; format: binding; conditions: peptide immobilized via thiol-maleimide on PEG-modified epoxy glass slide; antibody 5 µg/mL in PBS, 25 °C, 3 h; ImageJ; n = 1
Experimental: Epoxy-functionalized microscope glass slides (Tekdon Incorporated, Myakka City, FL, USA) were mounted in eight-well chambers. For peptide immobilization, NH2-PEG5000-COOH linkers (Biopharma PEG, Watertown, MA, USA) were applied to each well at a concentration of 1 mg/mL in ddH2O and incubated for ~5 h. The slides were then rinsed three times with ddH2O. Carboxyl groups of NH2-PEG5000-COOH linkers were activated for 30 min using 4 µg/mL 1-ethyl-3-(3-dimethylaminopropyl) carbodiimide hydrochloride (EDC; Thermo Fisher Scientific, Waltham, MA, USA) and 6 µg/mL N-hydroxy succinimide (NHS; Thermo Fisher Scientific) in ddH2O. Upon activation, the surfaces were washed three times with 1× PBS (Gibco, Grand Island, NY, USA) and incubated for over 5 h with an excess of NH2-PEG1000-MAL linkers (1 mg/mL in 1× PBS; Biopharma PEG). […]
[…] (Abcam, Cambridge, UK) were used to evaluate the antibody-binding capacity of each functionalized surface. […] The amount of surface-captured antibody was quantified via fluorescence imaging. […] Fluorescence intensity was analyzed using Image J software (64-bit Java 8). […]
Figure 3 IgG capture assay using FITC-labeled human IgG to evaluate the Fc-binding capability of peptides. […] (C) Quantitative fluorescence intensity analysis performed using ImageJ software (64-bit Java 8). […]

α-chymotrypsin = α-chymotrypsin (Bos taurus, UniProt P00766); conditions: 100 μM peptide in DPBS, peptide-to-enzyme mass ratio 100:1, time points 0, 1, 5, 15, 30, 60 min, stopped with 0.1% TFA, RP-HPLC read-out
Experimental: Peptides were prepared at a concentration of 100 μM in DPBS, and α-chymotrypsin was added to achieve a final peptide-to-enzyme mass ratio of 100:1. The digestion was carried out at time points of 0, 1, 5, 15, 30, and 60 min, after which 0.1% TFA was added to terminate the reaction. The resulting samples were analyzed by reversed-phase HPLC (water/acetonitrile with 0.1% TFA) to monitor peptide stability.

## Protein A: Fc-binding protein of Staphylococcus aureus, positive control of the IgG capture test
FITC-labeled human IgG
  IgG-binding capacity (fluorescence intensity of captured IgG), in words: strong signal intensity

## CSCC[C@H](NC(=O)[C@H](CC(N)=O)NC(=O)[C@@H](N)Cc1ccccc1)C(=O)N[C@@H](CCC(N)=O)C(=O)N[C@@H](C)C(=O)N[C@@H](CCC(N)=O)C(=O)N[C@@H](CCCNC(=N)N)C(=O)N[C@@H](CCCNC(=N)N)C(=O)N[C@@H](Cc1ccccc1)C(=O)N[C@@H](Cc1ccc(O)cc1)C(=O)N[C@@H](CCC(=O)O)C(=O)N[C@@H](C)C(=O)N[C@@H](CC(C)C)C(=O)N[C@@H](Cc1c[nH]cn1)C(=O)N[C@@H](CS)C(N)=O [SpA h1] (H-FNMQAQRRFYEALHC-NH2)
α-chymotrypsin
  time within which most of the peptide signal disappeared on α-chymotrypsin treatment: ≤ 1 min
